Measurements published in patent US6875425B2, “Skin lightening agents, compositions and methods” (Unilever Home & Personal Care USA, priority 2002, dated 2005).

System: mushroom tyrosinase
Assay: Mushroom Tyrosinase Assay
Format: biochemical
Conditions: for % of Control (Melanin Synthesis): L-DOPA substrate, slope of 475-nm absorbency vs. ethanol control
Method: Mushroom tyrosinase inhibition is indicative of reduction in melanin synthesis, thereby showing skin lightening effect. […] Following an initial measurement of background absorbency at 475-nm, 20 microliters of mushroom tyrosinase (Sigma T-7755; 6050 units/ml) was added and incubated at room temperature. Absorbency is read at 475-nm over the following time points: 0, 2, 4, and 6.5 minutes. The data is plotted as 475-nm absorbency vs. time (minutes) and the slope of the line is calculated (ΔAbs 475nm/min). Values are expressed as the percentage of the respective untreated ethanol control reaction. [formula]

% of Control (Melanin Synthesis) (0.1 uM compound)	% of Control (Melanin Synthesis) (1 uM compound)	% of Control (Melanin Synthesis) (10 uM compound)	% of Control (Melanin Synthesis) (100 uM compound)	activity in the mushroom tyrosinase assay (in words) (summary of Table 8)	Compound
73 % of Control	46 % of Control	31 % of Control	21 % of Control	–	CCc1ccc(O)cc1O [4-Ethyl Resorcinol]
97 % of Control	98 % of Control	98 % of Control	100 % of Control	does not display activity	Oc1cccc(O)c1 [Resorcinol]

Compound	% of Control (Melanin Synthesis) (0.1 uM compound)	% of Control (Melanin Synthesis) (1 uM compound)	% of Control (Melanin Synthesis) (10 uM compound)	% of Control (Melanin Synthesis) (100 uM compound)	activity in the mushroom tyrosinase assay (in words) (summary of Table 8)
Oc1ccc(C2SCCCS2)c(O)c1 [1,3-di-Thiane Resorcinol]	87 % of Control	57 % of Control	48 % of Control	47 % of Control	–
